Results reported in PubChem BioAssay AID1963984 (Molecular Pharmacology Branch, DTP, NCI, 2024).
pIC50: −log10 of the molar value. Where “and” joins values, the source holds several entries; their conditions need not be identical. Equal values may be shown once.

Test system: 233499-124-R-J3-PDC spheroids with HUVEC/MSC, viability
Experiment: Anticancer human tumor 233499-124-R-J3-PDC patient-derived colon adenocarcinoma cell line growth inhibition [PI3K]
Conditions: for viability, T/C: stronger effect = lower value
Excerpt: Combinatorial screen of targeted agents with the PI3K inhibitors inavolisib, alpelisib, duvelisib, and copanlisib in multi-cell type tumor spheroids
A high-throughput screen of multi-cell type tumor spheroids was designed to identify active combinations of targeted small molecules and PI3K pathway inhibitors. Complex spheroids include a stromal component modeled by human endothelial cells (HUVEC) and fibroblasts modeled by human mesenchymal stem cells (MSCs). The concentration ranges selected for each drug and investigational agent were based upon clinically achievable concentrations if the clinical Cmax of the agent was known.
Compounds. The drugs and investigational agents: inavolisib (NSC800729), alpelisib (NSC765974), duvelisib (NSC772469), copanlisib (NSC816437), ipatasertib (NSC767898), afuresertib (NSC778305), talazoparib (NSC767125), sapanisertib (NSC764658), selumetinib (NSC741078), tovorafenib (DAY101, NSC766906), vemurafenib (NSC761431), ravoxertinib (NSC781343), sotorasib (NSC818433), MRTX1133 (NSC 836407), abemaciclib (NSC 768073), palbociclib (NSC758247), venetoclax (NSC 766270), SY5609 (NSC837396), enzalutamide (NSC755605), and darolutamide (NSC825331), were obtained from the National Cancer Institute (NCI) Developmental Therapeutics Program Chemical Repository. The FDA-approved anticancer drug set is available from the NCI Developmental Therapeutics Program. […] The stock solutions were prepared in dimethyl sulfoxide (DMSO, Sigma-Aldrich, St. Louis, MO, cat. D2650) at 800-fold the tested concentration and stored at -70 degrees C prior to their use. All drugs and investigational agents were tested over a range starting from a high concentration at or near the clinical Cmax and decreasing in half-log increments. If the clinical Cmax for an agent had not been determined, the highest concentration tested was 10 microM.
Cell Culture. All cells were maintained in an incubator at 37 degrees C and 5% CO2 with 95% humidity. The PDC lines were cultured according to standard operating procedures established by the NCI PDMR (https://pdmr.cancer.gov/sops/default.htm). All PDCs were thawed and cultured in Matrigel-coated flasks prepared with a working solution of 1X Ham's F-12 nutrient mix, without supplementation (Invitrogen, Waltham, MA, cat. 11765054), 100 U/mL penicillin-streptomycin (Invitrogen, cat. 15140122), and 2.5% Matrigel (Corning Inc., Corning, NY, cat. 354248) for the first three passages. The 354836-022-R-J1-PDC, 475296-252-R-J1-PDC, and 997726-040-R-J2-PDC lines were cultured in 6A media, which includes advanced DMEM/F-12 (Thermo Fisher Scientific, cat. 12634028), 10 mM HEPES (Thermo Fisher Scientific, cat. 15630080), 1X GlutaMAX supplement (Thermo Fisher Scientific, cat. 35050061), 0.1 mg/mL primocin (InvivoGen, San Diego, CA, cat. ant-pm-2), 10% defined fetal bovine serum, heat inactivated (HyClone Laboratories Inc., Logan, UT, cat. SH30070.03HI), 50% L-WRN conditioned media (ATCC, cat. CRL-3276), 1.25 mM N-Acetyl-L-cysteine (Sigma-Aldrich, cat. A9165), 10 mM nicotinamide (Sigma-Aldrich, cat. N0636), 1X B-27 supplement (Thermo Fisher Scientific, cat. 17504044), 1X N-2 supplement (Thermo Fisher Scientific, cat. 17502048), and 10 microM Y-27632 dihydrochloride (Tocris Bioscience, Bristol, United Kingdom, cat. 1254). The 624824-186-R-J2-PDC line was cultured in 6C/Colon 1B media, which includes all 6A media components plus 50 ng/mL human EGF recombinant protein (Thermo Fisher Scientific, cat. PHG0311). […]

[1] = compound alone, run of 05/09/2023
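Further: spheroids exposed to agents for seven days before readout.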
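Wherever viability, T/C is given: percent viability relative to DMSO vehicle control taken as 100%.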

SMILES | viability, T/C (compound 0.0316 µM) | viability, T/C (compound 0.1 µM) | viability, T/C (compound 0.316 µM) | viability, T/C (compound 1 µM) | viability, T/C (compound 3.16 µM) | viability, T/C (compound 10 µM) | pIC50 (curve of compound) | IC50 (curve of compound) | further results
C#Cc1c(F)ccc2cc(O)cc(-c3ncc4c(N5CC6CCC(C5)N6)nc(OCC56CCCN5CC(F)C6)nc4c3F)c12 (configuration not stated) | 96% [middle of 4 runs] | 102% [middle of 4 runs] | 95.6% [middle of 4 runs] | 99.3% [middle of 4 runs] | 87.5% [middle of 4 runs] | 84.1% [middle of 4 runs] | < 5.00 | – | –
C=CC(=O)N1CCN(c2nc(=O)n(-c3c(C)ccnc3C(C)C)c3nc(-c4c(O)cccc4F)c(F)cc23)C(C)C1 (configuration not stated) | 91.7% [middle of 4 runs] | 99.3% [middle of 4 runs] | – | 113% [middle of 4 runs] | 99.9% [middle of 4 runs] | – | < 5.00 | – | –
CC(=O)c1c(C)c2cnc(Nc3ccc(N4CCNCC4)cn3)nc2n(C2CCCC2)c1=O | – | 91.2% [middle of 4 runs] | – | – | – | – | < 7.00 | – | viability, T/C (compound 0.000316 µM): 98.4% [middle of 4 runs]; viability, T/C (compound 0.001 µM): 98.5% [middle of 4 runs]; viability, T/C (compound 0.00316 µM): 85.1% [middle of 4 runs]; viability, T/C (compound 0.01 µM): 88.2% [middle of 4 runs]
CC(C)NCC(C(=O)N1CCN(c2ncnc3c2C(C)CC3O)CC1)c1ccc(Cl)cc1 (configuration not stated) | 97.7% [middle of 4 runs] | – | 94% [middle of 4 runs] | 102% [middle of 4 runs] | 94.5% [middle of 4 runs] | – | < 5.00 | – | –
CC(C)n1nc(-c2ccc3oc(N)nc3c2)c2c(N)ncnc21 | 82.9% [middle of 4 runs] | 58.7% [middle of 4 runs] | – | – | – | – | < 7.00 | – | viability, T/C (compound 0.001 µM): 94.8% [middle of 4 runs]; viability, T/C (compound 0.00316 µM): 89.4% [middle of 4 runs]; viability, T/C (compound 0.01 µM): 85.9% [middle of 4 runs]
CC(Cn1ccc(-c2ccc(C#N)c(Cl)c2)n1)NC(=O)c1cc(C(C)O)[nH]n1 (configuration not stated) | – | – | 97.2% [middle of 4 runs] | 98.2% [middle of 4 runs] | 92.5% [middle of 4 runs] | – | < 5.00 | – | –
CC(Nc1ccc2c(c1)OCCn1cc(N3C(=O)OCC3C(F)F)nc1-2)C(N)=O (configuration not stated) | – | 80.2% [middle of 8 runs] | – | 71.6% [middle of 8 runs] | – | – | – | – | pIC50 (compound alone, run of 05/08/2023): < 6.00
CC(Nc1ncnc2nc[nH]c12)c1cc2cccc(Cl)c2c(=O)n1-c1ccccc1 (configuration not stated) | 93.9% [middle of 8 runs] | 97.2% [middle of 8 runs] | 95.8% [middle of 8 runs] | 103% [middle of 8 runs] | 100% [middle of 8 runs] | 89.7% [middle of 8 runs] | – | – | pIC50 [1]: < 5.00
CC1(C)CCC(CN2CCN(c3ccc(C(=O)NS(=O)(=O)c4ccc(NCC5CCOCC5)c([N+](=O)[O-])c4)c(Oc4cnc5[nH]ccc5c4)c3)CC2)=C(c2ccc(Cl)cc2)C1 | 96.5% [middle of 4 runs] | 104% [middle of 4 runs] | – | – | 100% [middle of 4 runs] | – | – | – | –
CC1(C)CCC(Nc2ncc(C(F)(F)F)c(-c3c[nH]c4c(P(C)(C)=O)c(C#N)ccc34)n2)CN1 (configuration not stated) | 66.7% [middle of 4 runs] | – | 46.9% [middle of 4 runs] | 26.5% [middle of 4 runs] | 29.1% [middle of 4 runs] | 5.67% [middle of 4 runs] | – | – | –
CCCS(=O)(=O)Nc1ccc(F)c(C(=O)c2c[nH]c3ncc(-c4ccc(Cl)cc4)cc23)c1F | – | 97.4% [middle of 4 runs] | 97.2% [middle of 4 runs] | 100% [middle of 4 runs] | – | 2.53% [middle of 4 runs] | – | 5.22 µM [middle of 4 runs] | –
CCN1CCN(Cc2ccc(Nc3ncc(F)c(-c4cc(F)c5nc(C)n(C(C)C)c5c4)n3)nc2)CC1 | 85.6% [middle of 4 runs] | 93.8% [middle of 4 runs] | 58.9% [middle of 4 runs] | 38.2% [middle of 4 runs] | – | – | – | – | viability, T/C (compound 0.01 µM): 88.5% [middle of 4 runs]
CNC(=O)c1ccc(N2C(=S)N(c3ccc(C#N)c(C(F)(F)F)c3)C(=O)C2(C)C)cc1F | 93% [middle of 4 runs] | 94.5% [middle of 4 runs] | 107% [middle of 4 runs] | 93.1% [middle of 4 runs] | 92.1% [middle of 4 runs] | – | < 5.00 | – | –
COc1c(OCCCN2CCOCC2)ccc2c3n(c(=NC(=O)c4cnc(N)nc4)nc12)CCN3 | 93.6% [middle of 8 runs] | – | 31.3% [middle of 8 runs] | 11.8% [middle of 8 runs] | – | – | – | – | viability, T/C (compound 0.01 µM): 84.7% [middle of 8 runs]; IC50 [1]: 185 nM [middle of 8 runs]
C[C@@H](NC(=O)c1ncnc(N)c1Cl)c1ncc(C(=O)Nc2cc(C(F)(F)F)c(Cl)cn2)s1 | – | – | – | – | 110% [middle of 4 runs] | 110% [middle of 4 runs] | < 5.00 | – | –
Cc1nc(NC(=O)N2CCCC2C(N)=O)sc1-c1ccnc(C(C)(C)C(F)(F)F)c1 (configuration not stated) | 79.1% [middle of 7 runs] | 88.6% [middle of 8 runs] | – | – | – | – | – | – | –
Cn1cnc2c(F)c(Nc3ccc(Br)cc3Cl)c(C(=O)NOCCO)cc21 | – | – | – | – | – | – | – | – | viability, T/C (compound 0.00949 µM): 80.2% [middle of 4 runs]; viability, T/C (compound 0.0949 µM): 64.8% [middle of 4 runs]; viability, T/C (compound 0.3 µM): 50.3% [middle of 4 runs]; viability, T/C (compound 0.949 µM): 49.8% [middle of 4 runs]; viability, T/C (compound 3 µM): 30.5% [middle of 4 runs]
Cn1ncc(Cl)c1-c1cc(C(=O)NC(CN)Cc2cccc(F)c2)sc1Cl (configuration not stated) | 85.8% [middle of 4 runs] | 102% (2×) and 85.4% and 93.9% | 86.2% [middle of 4 runs] | 89.6% [middle of 4 runs] | 63.6% [middle of 4 runs] | 32.4% [middle of 4 runs] | – | 4.62 µM [middle of 4 runs] | –
Cn1nccc1Nc1nccc(-c2ccn(C(CO)c3ccc(Cl)c(F)c3)c(=O)c2)n1 (configuration not stated) | – | 100% [middle of 4 runs] | – | – | – | 71.2% [middle of 4 runs] | < 5.00 | – | –
Cn1ncnc1[C@H]1c2n[nH]c(=O)c3cc(F)cc(c23)N[C@@H]1c1ccc(F)cc1 | 103% [middle of 4 runs] | 89% [middle of 4 runs] | – | – | – | – | < 7.00 | – | viability, T/C (compound 0.000316 µM): 100% [middle of 4 runs]; viability, T/C (compound 0.001 µM): 99.6% [middle of 4 runs]
